Assay results published in patent US6897028B1, “Identification of molecular targets” (Florida State University, priority 1997, dated 2005).

What was measured:
Bcl-2/GST fusion protein [1] = molecular target: T1, Bcl-2/GST fusion protein (Homo sapiens, UniProt P10415); experiment: ELISA binding of Bcl-2/GST fusion protein to immobilized biotinylated taxane; details: confirmation of binding of Bcl-2 to taxol
Excerpt: ELISA binding assays were used to determine if the Bcl-2/GST fusion protein binds directly to immobilized biotinylated taxol. Anti-Bcl-2 antibodies were used to detect Bcl-2 binding. […] The x-axis is the log nM concentration of protein in solution (Bcl-2 or Bcl-XL); the y-axis is the uncorrected optical density at 490 nm. The insert is the chemical structure of the biotinylated taxol used in the selection of peptides.

GST = GST (Schistosoma japonicum, UniProt P08515); experiment: Circular dichroism control: purified GST with and without taxol; assay type: binding; details: GST alone
GST, sequence (P08515 whole entry): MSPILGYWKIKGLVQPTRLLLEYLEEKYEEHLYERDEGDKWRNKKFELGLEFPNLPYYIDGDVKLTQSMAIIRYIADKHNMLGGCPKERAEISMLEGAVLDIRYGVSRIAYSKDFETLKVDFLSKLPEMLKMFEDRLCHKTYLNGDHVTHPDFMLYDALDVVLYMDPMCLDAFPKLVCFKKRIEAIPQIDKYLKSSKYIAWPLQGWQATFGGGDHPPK
Experimental: In a control experiment, taxol was added to purified GST from S. japonicum. […] The differences are far smaller than the error bars, and there is no change in the 220/210 nm ratio, nor is a peak shift observed. This means that were there any net structural change within the GST molecule alone, it would involve less than 0.5% of its total secondary structure. […] Furthermore, this binding has significant structural consequences for the Bcl-2 protein, involving approximately 15% to 20% of the loop residues.

[2] = tested on: 697 human acute leukemia pre-B cells; details: 697 cells; cited from earlier work
Bcl-2/GST fusion protein [3] = molecular target: T1, Bcl-2/GST fusion protein; experiment: Circular dichroism spectroscopy of Bcl-2/GST with and without taxol; assay type: binding
Excerpt: Each spectrum is the averaged result of five spectra and subtracted baselines with standard deviations as indicated. These differences are much larger than the error bars (standard deviations) in the measurements, and involve a change in both the shape of the curve (ratio of the 220/210 nm peaks) and the peak positions. The secondary structures calculated for the Bcl-2 fusion protein with and without taxol differ by approximately 4%, and appear to involve a change in a region of the molecule that is found in a beta-turn conformation. This corresponds to the type of secondary structure which is predicted for the HTPHP-containing portion of the Bcl-2 loop region (SEQ. ID No. 3). […] Homology between TAX2.29 and human Bcl-2 lies between positions 1 through 12 and residues 55 through 66 respectively, inferring a minimum drug/protein interaction of at least twelve amino acids.

human LIF = human LIF (Homo sapiens, UniProt P15018); experiment: ELISA binding of biotinylated dioxin to LIF; details: species not given
human LIF, sequence (P15018 23-202): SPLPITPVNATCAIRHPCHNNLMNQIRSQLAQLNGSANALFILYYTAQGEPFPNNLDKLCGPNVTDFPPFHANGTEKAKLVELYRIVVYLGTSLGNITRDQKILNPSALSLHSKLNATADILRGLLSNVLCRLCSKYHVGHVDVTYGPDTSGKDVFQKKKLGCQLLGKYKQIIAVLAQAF
Experimental: The applicants utilized the same biotinylated dioxin as Petrenko in an ELISA assay for binding to LIF, to several mutants of the LIF protein changed in the EPFP homology domain (residues 50-53), to anti-dioxin antibodies as a positive control, and to ciliary neurotrophic factor (CNTF) (structurally similar to LIF but lacking the SEQ. ID NO. 5 motif) as a negative control. […] to human and murine LIF with a KD of approximately 10-100 μM, indicating an affinity approximately 10,000 fold less than the anti-dioxin antibodies used as a positive control.

T1 sequence (P10415 whole entry, the tested form may be a part): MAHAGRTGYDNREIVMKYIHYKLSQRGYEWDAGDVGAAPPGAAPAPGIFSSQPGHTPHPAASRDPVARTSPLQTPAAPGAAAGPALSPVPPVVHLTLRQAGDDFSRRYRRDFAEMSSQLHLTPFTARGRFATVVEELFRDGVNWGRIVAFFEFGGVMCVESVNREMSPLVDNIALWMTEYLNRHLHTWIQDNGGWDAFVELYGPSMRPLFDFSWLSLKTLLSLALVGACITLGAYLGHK

Row | Compound | binding affinity in words (Bcl-2/GST fusion protein [1]) | CD spectra with and without taxol (GST) | net structural change as share of total secondary structure (GST) | apoptosis [2] | phosphorylation of Bcl-2 [2] | difference in calculated secondary structure with and without taxol (Bcl-2/GST fusion protein [3]; CD, beta-turn region) | conformational change upon binding taxol (CD spectrum) (Bcl-2/GST fusion protein [3]; spectra with and without taxol) | binding affinity in words (human LIF)
1 | CC(=O)O[C@H]1C(=O)[C@@]2(C)[C@H]([C@H](OC(=O)c3ccccc3)[C@]3(O)C[C@H](OC(=O)[C@H](O)[C@@H](NC(=O)c4ccccc4)c4ccccc4)C(C)=C1C3(C)C)[C@]1(OC(C)=O)CO[C@@H]1C[C@@H]2O [taxol] | micromolar affinity | virtually identical | less than 0.5% | induces | induces | approximately 4% | substantial conformational change | 
2 | CC(=O)O[C@@]12CO[C@@H]1C[C@H](O)[C@@]1(C)C(=O)[C@H](O)C3=C(C)[C@@H](OC(=O)[C@H](O)[C@@H](NC(=O)OC(C)(C)C)c4ccccc4)C[C@@](O)([C@@H](OC(=O)c4ccccc4)[C@H]21)C3(C)C [taxotere] |  |  |  | induces | induces |  |  | 
3 | C1=COC=CO1 [dioxin] |  |  |  |  |  |  |  | at least micromolar affinity
